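Compound exposure: 48 hours, 5 concentrations, 96-well plates. At the GI50, growth is halved. At the TGI there is no net growth.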
What was measured:
Assay in all cases: growth of human tumour cells (NCI), 48 h
[1] = test system: SK-OV-3 ovarian
[2] = test system: CAKI-1 renal
[3] = test system: SF-268 CNS
[4] = test system: HOP-92 NSCLC
[5] = test system: HL-60(TB) leukemia
[6] = test system: MDA-MB-435
[7] = test system: HCT-15 colon
[8] = test system: SW-620 colon
[9] = test system: SK-MEL-28 melanoma
[10] = test system: HOP-62 NSCLC
[11] = test system: U251 CNS
[12] = test system: RXF 393 renal
[13] = test system: EKVX NSCLC
[14] = test system: UO-31 renal
[15] = test system: HCT-116 colon
[16] = test system: SK-MEL-5 melanoma
[17] = test system: SK-MEL-2 melanoma
[18] = test system: NCI-H23 lung
[19] = test system: CCRF-CEM leukemia
[20] = test system: NCI/ADR-RES ovarian
[21] = test system: MCF7 breast
[22] = test system: IGROV1 ovarian
[23] = test system: SNB-75 CNS
[24] = test system: NCI-H522 lung
[25] = test system: NCI-H226 lung
[26] = test system: OVCAR-3 ovarian
[27] = test system: M14 melanoma
[28] = test system: KM12 colon
[29] = test system: SNB-19 CNS
[30] = test system: MALME-3M melanoma
[31] = test system: OVCAR-8 ovarian
[32] = test system: SF-295 CNS
[33] = test system: A498 renal
[34] = test system: DU-145 prostate
[35] = test system: K-562 leukemia
[36] = test system: MOLT-4 leukemia
[37] = test system: PC-3 prostate
[38] = test system: BT-549 breast
[39] = test system: LOX IMVI melanoma
[40] = test system: NCI-H460 lung
[41] = test system: A549 NSCLC
[42] = test system: HCC-2998 colon
[43] = test system: ACHN renal
[44] = test system: T-47D breast
[45] = test system: MDA-MB-231 breast
[46] = test system: RPMI-8226 leukemia
[47] = test system: OVCAR-4 ovarian
[48] = test system: SF-539 CNS
[49] = test system: HT29 colon
[50] = test system: UACC-62 melanoma
[51] = test system: HS 578T breast
[52] = test system: TK-10 renal
[53] = test system: COLO 205 colon
[54] = test system: 786-0 renal
[55] = test system: SN12C renal
[56] = test system: UACC-257 melanoma
[57] = test system: SR leukemia
[58] = test system: OVCAR-5 ovarian

Cc1ccc(N=Nc2c(N)nn(-c3ccccc3)c2N)cc1
GI50 [1]: 2.63 µM | TGI [1]: > 100 µM | GI50 [2]: 1.28 µM | TGI [2]: > 23.1 µM | GI50 [3]: 4.7 µM | TGI [3]: > 100 µM | GI50 [4]: 3.44 µM | TGI [4]: 9.05 µM | GI50 [5]: 0.638 µM | TGI [5]: > 21.6 µM | GI50 [6]: 0.177 µM | TGI [6]: 0.568 µM | GI50 [7]: 0.612 µM | TGI [7]: > 100 µM | GI50 [8]: 0.493 µM | TGI [8]: > 100 µM | GI50 [9]: 8.97 µM | TGI [9]: > 100 µM | GI50 [10]: 2.49 µM | GI50 [11]: 0.762 µM | TGI [11]: > 100 µM | GI50 [12]: 2.9 µM | TGI [12]: > 100 µM | GI50 [13]: 3.72 µM | TGI [13]: > 100 µM | GI50 [14]: 7.97 µM | TGI [14]: > 100 µM | GI50 [15]: 0.542 µM | TGI [15]: > 100 µM | GI50 [16]: 1.65 µM | TGI [16]: > 100 µM | GI50 [17]: 0.464 µM | GI50 [18]: 2.29 µM | GI50 [19]: 2.06 µM | GI50 [20]: 0.412 µM | TGI [20]: > 20.6 µM | GI50 [21]: 0.67 µM | TGI [21]: > 100 µM | GI50 [22]: 4.5 µM | TGI [22]: > 100 µM | GI50 [23]: 2.3 µM | TGI [23]: > 78.3 µM | GI50 [24]: 1 µM | TGI [24]: > 100 µM | GI50 [25]: 59.4 µM | TGI [25]: > 100 µM | GI50 [26]: 0.705 µM | TGI [26]: 3.58 µM | GI50 [27]: 1.04 µM | TGI [27]: > 100 µM | GI50 [28]: 0.626 µM | TGI [28]: > 100 µM | GI50 [29]: 6.23 µM | TGI [29]: > 100 µM | TGI [30]: > 100 µM | GI50 [31]: 4.27 µM | TGI [31]: > 100 µM | GI50 [32]: 1.83 µM | TGI [32]: > 57.1 µM | GI50 [33]: 1.95 µM | TGI [33]: > 28.7 µM | GI50 [34]: 3.44 µM | TGI [34]: > 100 µM | GI50 [35]: 0.256 µM | GI50 [36]: 1.07 µM | TGI [36]: > 100 µM | GI50 [37]: 1.53 µM | TGI [37]: 6.17 µM | GI50 [38]: 0.737 µM | TGI [38]: > 100 µM | GI50 [39]: 5.78 µM | TGI [39]: > 100 µM | GI50 [40]: 1.07 µM | TGI [40]: > 100 µM | GI50 [41]: 2.13 µM | TGI [41]: > 100 µM | GI50 [42]: 0.912 µM | TGI [42]: > 100 µM | GI50 [43]: 11.6 µM | TGI [43]: > 100 µM | GI50 [44]: 1.74 µM | TGI [44]: > 100 µM | GI50 [45]: 7.41 µM | TGI [45]: > 100 µM | GI50 [46]: 1.61 µM | TGI [46]: 42 µM | GI50 [47]: > 40.7 µM | TGI [47]: > 100 µM | GI50 [48]: 1.78 µM | TGI [48]: > 22.8 µM | GI50 [49]: 0.353 µM | GI50 [50]: 0.874 µM | TGI [50]: > 100 µM | GI50 [51]: 1.94 µM | TGI [51]: > 31.4 µM | TGI [52]: > 100 µM | GI50 [53]: 1.21 µM | TGI [53]: > 26.9 µM | GI50 [54]: 0.755 µM | GI50 [55]: 7.66 µM | TGI [55]: > 100 µM | GI50 [56]: 42.9 µM | TGI [56]: > 100 µM | GI50 [57]: 0.378 µM | TGI [57]: > 100 µM

O=C(NNc1ccccc1)OCc1ccccc1
GI50 [1]: > 100 µM | TGI [1]: > 100 µM | GI50 [2]: 1.02 µM | TGI [2]: 14.2 µM | GI50 [3]: 9.27 µM | TGI [3]: > 100 µM | GI50 [4]: 14.7 µM | TGI [4]: > 100 µM | GI50 [5]: 3.55 µM | TGI [5]: 58.7 µM | GI50 [6]: 4.13 µM | TGI [6]: > 100 µM | GI50 [7]: 4.98 µM | TGI [7]: > 100 µM | GI50 [8]: 2.14 µM | TGI [8]: > 100 µM | GI50 [9]: 98.3 µM | TGI [9]: > 100 µM | GI50 [10]: 84.5 µM | TGI [10]: > 100 µM | GI50 [11]: 70.6 µM | TGI [11]: > 100 µM | GI50 [12]: 91.6 µM | TGI [12]: > 100 µM | GI50 [14]: 2.88 µM | TGI [14]: 37 µM | GI50 [15]: 12.4 µM | TGI [15]: > 100 µM | GI50 [16]: 16.8 µM | TGI [16]: > 100 µM | GI50 [17]: 15.7 µM | TGI [17]: > 100 µM | GI50 [18]: 69.5 µM | TGI [18]: > 100 µM | GI50 [19]: 3.94 µM | TGI [19]: > 100 µM | GI50 [20]: 21.1 µM | TGI [20]: > 100 µM | GI50 [21]: 26.2 µM | TGI [21]: > 100 µM | GI50 [22]: 15.2 µM | TGI [22]: > 100 µM | GI50 [23]: > 100 µM | TGI [23]: > 100 µM | GI50 [24]: 33.6 µM | TGI [24]: > 100 µM | GI50 [26]: 21 µM | TGI [26]: > 100 µM | GI50 [27]: 2.81 µM | TGI [27]: 60.6 µM | GI50 [28]: 3.92 µM | TGI [28]: > 100 µM | GI50 [29]: 63.9 µM | TGI [29]: > 100 µM | GI50 [30]: 20.1 µM | TGI [30]: 96.6 µM | GI50 [31]: 11.2 µM | TGI [31]: > 100 µM | GI50 [32]: 2.81 µM | TGI [32]: 28.2 µM | GI50 [33]: 13.3 µM | TGI [33]: > 100 µM | GI50 [34]: 75.5 µM | TGI [34]: > 100 µM | GI50 [35]: 1.94 µM | TGI [35]: > 100 µM | GI50 [36]: 5.89 µM | TGI [36]: > 100 µM | GI50 [37]: 5.35 µM | TGI [37]: > 100 µM | GI50 [38]: 16.6 µM | TGI [38]: 85.5 µM | GI50 [39]: 15.2 µM | TGI [39]: > 100 µM | GI50 [40]: 4.43 µM | TGI [40]: > 100 µM | GI50 [41]: 9.18 µM | TGI [41]: > 100 µM | GI50 [42]: 17.6 µM | TGI [42]: > 100 µM | GI50 [58]: 8.05 µM | TGI [58]: > 100 µM | GI50 [43]: 6.9 µM | TGI [43]: > 100 µM | GI50 [44]: 9.86 µM | TGI [44]: > 100 µM | GI50 [45]: 11.3 µM | TGI [45]: > 100 µM | GI50 [46]: 17.3 µM | TGI [46]: > 100 µM | GI50 [47]: 18.6 µM | TGI [47]: > 100 µM | GI50 [48]: 2.91 µM | TGI [48]: 10.3 µM | GI50 [49]: 54.6 µM | TGI [49]: > 100 µM | GI50 [50]: 0.462 µM | TGI [50]: 8.43 µM | GI50 [51]: 70.2 µM | TGI [51]: > 100 µM | GI50 [52]: 32.9 µM | TGI [52]: > 100 µM | GI50 [53]: 17 µM | TGI [53]: 46.4 µM | GI50 [54]: 7.01 µM | TGI [54]: > 100 µM | GI50 [55]: 73.8 µM | TGI [55]: > 100 µM | GI50 [56]: 18.5 µM | TGI [56]: > 100 µM | GI50 [57]: 41.3 µM | TGI [57]: > 100 µM
